The values that follow come from patent EP1420008B1, “Composition, in particular cosmetic, comprising a secondary or tertiary amine” (L'ORÉAL, priority 2002, dated 2004).

The subject of test [1] is jonction nerf / muscle (plaque motrice). Nature of the test: Nerve/muscle junction model (motor end plate): isolated rat phrenic nerve / diaphragm preparation, contractions induced by indirect stimulation. As to conditions: for inhibition at 100 µM: Rattus norvegicus, concentration 10^-4 M, contractions induced by stimulation of the phrenic nerve (0.1 à 0.5 volts, 0.3 ms, 0.1 Hz), read-out: % INHIBITION DES CONTRACTIONS
On the procedure:
Le composé 1 a été testé sur un modèle de jonction nerf / muscle (plaque motrice) obtenu dans une préparation nerf phrénique / diaphragme isolé de rat (muscle strié) (Pollard B.J. et al, Br.J. Anaesth., 1988, 61, 419-424).
(§1) Ce test est prédictif d'un effet anti-rides, comme cela a été vérifié par la Demanderesse sur le diazépam, qui est à la fois actif in vivo chez l'homme et dans ce test à 10^-4 M.
Le nerf phrénique et le diaphragme sont soigneusement isolés et placés dans une cuve de 50 ml remplie de liquide de survie (liquide de Krebs Henseleit) maintenu à une température de 37°C et oxygéné à l'aide d'un mélange oxygène/CO2 (95/5).
Les variations de tension du diaphragme sont enregistrées avec une pré-charge initiale de plusieurs grammes.
Après une période de relaxation de 30 mn, le diaphragme est stimulé indirectement par l'intermédiaire du nerf phrénique.
Sur chaque préparation, l'effet du composé à tester a été évalué sur les contractions induites par stimulation indirecte via stimulation sur le nerf phrénique (0.1 à 0.5 volts, 0.3 ms, 0.1 Hz). L'alvérine, connue comme composé myorelaxant à effet anti-rides d'après la demande FR-2 798 590, est utilisée comme témoin.

Test [2] in a line: Anti-wrinkle effect in vivo in man (verification of the predictive value of the nerve/muscle test). As to conditions: in vivo chez l'homme.
Source text: as §1

Test [3] concerns the target canaux calciques de type L, site vérapamil (Rattus norvegicus, UniProt P22002). Nature of the test: Calcium channel test: competitive inhibition of [3H](-) D 888 binding, rat cerebral cortex homogenates. The text has this:
Le test mesure la capacité d'un produit à inhiber par compétition la fixation d'[…] de canaux calciques de type L, type Vérapamil. Ces canaux ont été identifiés au niveau des fibroblastes humains (Baumgarten LB and coll (1992), J. Biol. Chem, 267, 10524-10530 et Chen CF and coll (1988), Science, 239, 1024-1026).
Les études sont réalisées à partir d'homogénats de cortex cérébral de rat (membranes isolées présentant à leur surface notamment les canaux calciques de type L).
Les conditions expérimentales selon le protocole décrit par Reynolds I.J. et al., 1986, J. Pharmacol. Exp. Ther., 237, p.731, sont présentées dans le tableau 1 ci-dessous : Tableau 1
D888 et D600 sont les molécules de référence spécifiques des canaux calciques de type L, site vérapamil.
La liaison spécifique d'un ligand (D888 marqué) aux récepteurs (canaux calciques de type L, site vérapamil) est défini comme la différence entre la liaison totale et la liaison non spécifique déterminée en présence d'un excès de ligand non radioactif. Les résultats sont exprimés en pourcentage de liaison spécifique témoin et en pourcentage d'inhibition de cette liaison en présence des composés testés.
Les valeurs d'IC50 (concentration inhibant 50% de la liaison spécifique témoin) et du coefficient de Hill (nH) sont calculées pour les composés testés à partir des courbes de compétition selon un modèle de régression non linéaire. […]

The structures appear in SMILES notation.

Chain of canaux calciques de type L, site vérapamil (P22002 whole entry): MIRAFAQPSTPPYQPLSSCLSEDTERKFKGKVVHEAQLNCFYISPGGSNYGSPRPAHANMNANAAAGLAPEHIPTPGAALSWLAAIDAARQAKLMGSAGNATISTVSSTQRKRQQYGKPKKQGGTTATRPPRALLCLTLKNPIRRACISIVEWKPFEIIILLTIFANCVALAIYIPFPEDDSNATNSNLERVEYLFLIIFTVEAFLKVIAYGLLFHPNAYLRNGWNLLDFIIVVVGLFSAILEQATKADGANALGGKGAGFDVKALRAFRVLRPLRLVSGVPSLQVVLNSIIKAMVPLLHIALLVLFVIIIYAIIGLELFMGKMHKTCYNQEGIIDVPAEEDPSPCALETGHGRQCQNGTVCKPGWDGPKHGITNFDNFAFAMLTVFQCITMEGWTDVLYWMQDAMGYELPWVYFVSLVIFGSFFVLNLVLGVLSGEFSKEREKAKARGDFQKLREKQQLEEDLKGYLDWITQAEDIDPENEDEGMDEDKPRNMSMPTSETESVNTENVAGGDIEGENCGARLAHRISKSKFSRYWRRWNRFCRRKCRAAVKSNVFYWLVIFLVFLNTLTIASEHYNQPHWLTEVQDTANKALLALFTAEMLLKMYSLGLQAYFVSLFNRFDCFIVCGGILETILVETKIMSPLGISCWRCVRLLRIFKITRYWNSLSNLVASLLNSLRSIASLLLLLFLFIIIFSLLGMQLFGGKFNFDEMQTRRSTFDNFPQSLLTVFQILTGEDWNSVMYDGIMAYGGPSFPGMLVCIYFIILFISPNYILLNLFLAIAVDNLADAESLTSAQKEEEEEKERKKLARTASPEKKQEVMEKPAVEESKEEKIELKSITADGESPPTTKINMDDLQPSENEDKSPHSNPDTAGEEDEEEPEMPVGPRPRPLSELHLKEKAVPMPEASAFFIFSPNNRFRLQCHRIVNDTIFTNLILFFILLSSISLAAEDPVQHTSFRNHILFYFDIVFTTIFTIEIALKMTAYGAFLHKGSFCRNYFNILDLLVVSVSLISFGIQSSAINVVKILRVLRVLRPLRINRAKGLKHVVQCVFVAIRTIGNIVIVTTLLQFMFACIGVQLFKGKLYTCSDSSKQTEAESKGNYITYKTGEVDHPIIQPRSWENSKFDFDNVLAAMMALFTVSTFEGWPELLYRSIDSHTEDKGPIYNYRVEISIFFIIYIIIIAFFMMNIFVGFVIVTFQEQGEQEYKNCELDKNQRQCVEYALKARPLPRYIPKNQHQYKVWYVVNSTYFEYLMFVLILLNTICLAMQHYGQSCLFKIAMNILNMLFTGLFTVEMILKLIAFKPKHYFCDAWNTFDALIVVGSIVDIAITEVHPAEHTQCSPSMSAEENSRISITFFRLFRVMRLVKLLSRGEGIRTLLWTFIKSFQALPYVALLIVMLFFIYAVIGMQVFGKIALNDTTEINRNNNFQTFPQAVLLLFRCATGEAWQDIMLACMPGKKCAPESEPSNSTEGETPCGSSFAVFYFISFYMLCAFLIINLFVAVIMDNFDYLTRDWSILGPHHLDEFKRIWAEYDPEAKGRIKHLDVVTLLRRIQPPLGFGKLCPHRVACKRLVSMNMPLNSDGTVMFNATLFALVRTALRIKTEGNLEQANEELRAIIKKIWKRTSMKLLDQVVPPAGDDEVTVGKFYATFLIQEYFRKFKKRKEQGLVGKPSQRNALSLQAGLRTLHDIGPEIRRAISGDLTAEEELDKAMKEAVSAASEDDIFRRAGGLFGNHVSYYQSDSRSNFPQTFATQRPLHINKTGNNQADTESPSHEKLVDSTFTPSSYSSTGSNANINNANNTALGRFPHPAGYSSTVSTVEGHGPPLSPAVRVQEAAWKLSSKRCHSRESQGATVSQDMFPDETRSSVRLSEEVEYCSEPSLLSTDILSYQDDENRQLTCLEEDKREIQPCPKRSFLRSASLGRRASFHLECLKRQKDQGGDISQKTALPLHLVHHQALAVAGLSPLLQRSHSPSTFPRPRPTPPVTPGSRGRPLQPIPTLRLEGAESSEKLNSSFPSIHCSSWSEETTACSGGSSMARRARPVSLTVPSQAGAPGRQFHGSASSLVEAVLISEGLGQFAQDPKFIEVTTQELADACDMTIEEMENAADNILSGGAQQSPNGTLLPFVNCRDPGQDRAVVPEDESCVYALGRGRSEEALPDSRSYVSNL

Regarding `CN1C(=O)CN=C(c2ccccc2)c2cc(Cl)ccc21` [diazépam], in test [1] (10^-4 M), the “activity in the nerve/muscle junction test” value is given as “actif”. In test [2], the “activity in vivo (anti-wrinkle effect)” value was “actif”.

For `CCCCCC(O)(CCCCC)CCN(CC)CCCc1ccccc1` [Composé 1, 6-[2-{ethyl-(3-phenyl-propyl)amino}-ethyl]-undecan-6-ol], in test [1], the inhibition at 100 µM is 100%. In test [3] (conclusion from the IC50 values of Tableau 2), the “calcium channel inhibition compared with alvérine” value is recorded as “meilleur inhibiteur de canaux calciques que l'alvérine”.

With `CCN(CCCc1ccccc1)CCCc1ccccc1` [Alvérine], the inhibition at 100 µM in test [1] worked out at 100%. Moreover, the IC50 in test [3] (ligand [^3H](-) D 888 0.5 nM, non-specific D 600 (10 µM), 60 min. /22°C, measured in duplicate) was determined as 0.693 µM.
